Reference: the supplement of paper PMC4862054

What was measured:
Settings in all cases: incubation time: 72 h
BT-474 [1] = test: normalised response (% of control), CellTox Green; higher = less cell death (100 = DMSO, 0 = benzethonium chloride kill control)
Procedure, shortened: (§1)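 Values are normalised signals, each belonging to one concentration of the series. Breast cancer cells (20 µl suspension) were seeded into 384-well plates with compound at 5 concentrations in 10-fold steps over a compound-specific 10,000-fold range and incubated 72 h. Readouts were CellTox Green fluorescence (485/520 nm), then CellTiter-Glo luminescence after 10 min at room temperature, with each plate set to 0.1 % DMSO as 100 and a positive kill control as 0.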

BT-549 [2] = test: as above
Procedure, shortened: as §1

CAL-120 [3] = test: as above
Procedure, shortened: as §1

CAL-148 [4] = test: as above
Procedure, shortened: as §1

CAL-51 [5] = test: as above
Procedure, shortened: as §1

CAL-85-1 [6] = test: as above
Procedure, shortened: as §1

DU-4475 [7] = test: as above
Procedure, shortened: as §1

HCC1143 [8] = test: as above
Procedure, shortened: as §1

HCC1599 [9] = test: as above
Procedure, shortened: as §1

HCC1937 [10] = test: as above
Procedure, shortened: as §1

HDQ-P1 [11] = test: as above
Procedure, shortened: as §1

Hs578T [12] = test: as above
Procedure, shortened: as §1

MCF-10A [13] = test: as above
Procedure, shortened: as §1

MDA-MB-231 [14] = test: as above
Procedure, shortened: as §1

MDA-MB-436 [15] = test: as above
Procedure, shortened: as §1

MDA-MB-453 [16] = test: as above
Procedure, shortened: as §1

MDA-MB-468 [17] = test: as above
Procedure, shortened: as §1

MFM-223 [18] = test: as above
Procedure, shortened: as §1

BT-474 [19] = test: normalised response (% of control), CellTiter-Glo; higher = more viable cells (100 = DMSO, 0 = benzethonium chloride kill control)
Protocol: (§2)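 DSRT, 72 h incubation, CellTox Green / CellTiter-Glo readout. Signal is normalised to DMSO and benzethonium chloride controls. Value is the normalised response at the highest dose.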

BT-549 [20] = test: as above
Protocol: as §2

CAL-120 [21] = test: as above
Protocol: as §2

CAL-148 [22] = test: as above
Protocol: as §2

CAL-51 [23] = test: as above
Protocol: as §2

CAL-85-1 [24] = test: as above
Protocol: as §2

DU-4475 [25] = test: as above
Protocol: as §2

HCC1143 [26] = test: as above
Protocol: as §2

HCC1599 [27] = test: as above
Protocol: as §2

HCC1937 [28] = test: as above
Protocol: as §2

HDQ-P1 [29] = test: as above
Protocol: as §2

Hs578T [30] = test: as above
Protocol: as §2

MCF-10A [31] = test: as above
Protocol: as §2

MDA-MB-231 [32] = test: as above
Protocol: as §2

MDA-MB-436 [33] = test: as above
Protocol: as §2

MDA-MB-453 [34] = test: as above
Protocol: as §2

MDA-MB-468 [35] = test: as above
Protocol: as §2

MFM-223 [36] = test: as above
Protocol: as §2

SK-BR-3 = test: as above
Protocol: as §2

| Compound | normalised response (BT-474 [1]) [%] | normalised response (BT-549 [2]) [%] | normalised response (CAL-120 [3]) [%] | normalised response (CAL-148 [4]) [%] | normalised response (CAL-51 [5]) [%] | normalised response (CAL-85-1 [6]) [%] | normalised response (DU-4475 [7]) [%] | normalised response (HCC1143 [8]) [%] | normalised response (HCC1599 [9]) [%] | normalised response (HCC1937 [10]) [%] | normalised response (HDQ-P1 [11]) [%] | normalised response (Hs578T [12]) [%] | normalised response (MCF-10A [13]) [%] | normalised response (MDA-MB-231 [14]) [%] | normalised response (MDA-MB-436 [15]) [%] | normalised response (MDA-MB-453 [16]) [%] | normalised response (MDA-MB-468 [17]) [%] | normalised response (MFM-223 [18]) [%] | normalised response (BT-474 [19]) [%] | normalised response (BT-549 [20]) [%] | normalised response (CAL-120 [21]) [%] | normalised response (CAL-148 [22]) [%] | normalised response (CAL-51 [23]) [%] | normalised response (CAL-85-1 [24]) [%] | normalised response (DU-4475 [25]) [%] | normalised response (HCC1143 [26]) [%] | normalised response (HCC1599 [27]) [%] | normalised response (HCC1937 [28]) [%] | normalised response (HDQ-P1 [29]) [%] | normalised response (Hs578T [30]) [%] | normalised response (MCF-10A [31]) [%] | normalised response (MDA-MB-231 [32]) [%] | normalised response (MDA-MB-436 [33]) [%] | normalised response (MDA-MB-453 [34]) [%] | normalised response (MDA-MB-468 [35]) [%] | normalised response (MFM-223 [36]) [%] | normalised response (SK-BR-3) [%] |
| --- | --- | --- | --- | --- | --- | --- | --- | --- | --- | --- | --- | --- | --- | --- | --- | --- | --- | --- | --- | --- | --- | --- | --- | --- | --- | --- | --- | --- | --- | --- | --- | --- | --- | --- | --- | --- | --- |
| CC[C@H](CC#N)OC(=O)N[C@@H](C)c1cccc(NC(=O)Nc2ccc(-c3cnco3)c(OC)c2)c1 [AVN944] (10000 nM) | 96.4 | 88.5 | 102 | 67.1 | 78.9 | 101 | 89.2 | 105 | 97.1 | 96.6 | 94.6 | 48 | 85.2 | 110 | 97.9 | 107 | 124 | 100 | 48.8 | 27 | 50.6 | 41.4 | 19 | 38.4 | 15.7 | 31.5 | 33.4 | 42.2 | 42.3 | 35.4 | 58.9 | 47 | 38.1 | 62.3 | 30 | 49.7 | 37.1 |
| COc1cc2c(cc1-c1c(C)noc1C)ncc1[nH]c(=O)n([C@H](C)c3ccccn3)c12 [I-BET151] (10000 nM) | 95.2 | 81.8 | 76.1 | 72.4 | 47.1 | 48.9 | 81.2 | 104 | 93.5 | 66.3 | 72.8 | 112 | 28.1 | 45.2 | 35.5 | 98.5 | -18.1 | 104 | 59.3 | 38.5 | 64 | 71.7 | 59.5 | 30.7 | 53.3 | 59.3 | 67.6 | 72.2 | 67 | 35 | 54.5 | 62.5 | 75.6 | 21.8 | 50.6 | 49.9 | 53 |
| CN1CCc2c(c3ccccc3n2Cc2ccc(C(=O)NO)cc2)C1 [Tubastatin A] (10000 nM) | 86.9 | 87.1 | 99.3 | 80.1 | -14.9 | 80.3 | 93.7 | 55.3 | 90.1 | 61.3 | 106 | 122 | 99.6 | 49.3 | 79.8 | 91.3 | 41.7 | 84.2 | 75.4 | 75 | 84.1 | 77.3 | 39.3 | 72.5 | 79.9 | 47.1 | 85.3 | 70.1 | 73.3 | 87.9 | 98.5 | 72 | 72.3 | 57.4 | 66.4 | 87 | 42.2 |
| CC(C)n1nc(-c2ccc3oc(N)nc3c2)c2c(N)ncnc21 [INK128] (1000 nM) | 93.8 | 93.2 | 97.3 | 42 | 85.2 | 115 | 86.9 | 113 | 99.4 | 103 | 98.4 | -29.1 | 92 | 87.6 | 91.4 | 97.1 | 153 | 28.3 | 41.1 | 19.5 | 18.5 | 16.1 | 20.9 | 24.2 | 18.4 | 22.1 | 79.2 | 37 | 29.6 | 24.5 | 25.1 | 33.9 | 45.8 | 30 | 18.7 | 26.5 | 17.4 |
| CC(C)NC[C@@H](C(=O)N1CCN(c2ncnc3c2[C@H](C)C[C@H]3O)CC1)c1ccc(Cl)cc1 [GDC-0068] (10000 nM) | 95.7 | 76.8 | 104 | 29.8 | 77.1 | 100 | 96.6 | 110 | 95.9 | 97.5 | 67.2 | 119 | 101 | 124 | 96 | 90.9 | 46.7 | 74.7 | 86.6 | 55.3 | 70.3 | 3.54 | 36.8 | 66.1 | 75.2 | 55.8 | 82.5 | 61.5 | 58.3 | 65.1 | 58.9 | 89.5 | 77.5 | 29.6 | 43.4 | 23.3 | 44.3 |
| CCCc1cc(C)[nH]c(=O)c1CNC(=O)c1cc(-c2ccnc(N3CCN(C)CC3)c2)cc2c1cnn2C(C)C [GSK343] (10000 nM) | 4.03 | 97.6 | 78.5 | 85.5 | 106 | 56.8 | 92.7 | 68.4 | 73.6 | 101 | 80 | 79.2 | 90.1 | -68.4 | 95.2 | -8.4 | 114 | 77.3 | 11.3 | 77.1 | 79.4 | 62.8 | 120 | 30.2 | 77.8 | 68.9 | 22.8 | 100 | 66.7 | 74.4 | 97.5 | 7.92 | 53.9 | 13.7 | 11.1 | 41.8 | 11.3 |
| CCc1c(C(=O)C(N)=O)c2c(OCC(=O)O)cccc2n1Cc1ccccc1 [Varespladib] (10000 nM) | 99.6 | 103 | 104 | 98.3 | 108 | 93.6 | 97.5 | 103 | 102 | 72.7 | 97.1 | 121 | 110 | 102 | 105 | 101 | 109 | 90 | 99.2 | 99.8 | 115 | 109 | 97.3 | 104 | 91.3 | 101 | 95.1 | 96.7 | 98.8 | 99.3 | 100 | 95.7 | 101 | 102 | 97.7 | 105 | 103 |
| Cc1c(C(=O)Nc2ccc(N3C[C@@H](C)O[C@@H](C)C3)nc2)cccc1-c1ccc(OC(F)(F)F)cc1 [Erismodegib] (10000 nM) | 93 | 130 | 101 |  | 99.8 | 85.3 | 108 | 109 | 118 | 122 | 111 | 80.5 | 101 | 107 | 79 | 63.9 | 171 | 105 | 73.5 | 81.8 | 97.6 | 100 | 102 | 91.8 | 99.6 | 89.4 | 91.1 | 90.2 | 85.3 | 94.8 | 92 | 79 | 78.6 | 75.5 | 74.7 | 80.8 | 81 |
| COc1cc(Nc2ncc(F)c(Nc3ccc4c(n3)N(COP(=O)(O)O)C(=O)C(C)(C)O4)n2)cc(OC)c1OC [Fostamatinib] (2500 nM) | 77.7 | 64.8 | 67.8 | 67.6 | 31.6 | -13.8 | 90.3 | 100 | 92.7 | 74.1 | 73.6 | 19.2 | 69 | -11.9 | 86.6 | 89.1 | 37.4 | 87.5 | 27 | 39.7 | 43.7 | 106 | 50.8 | 30.5 | 65.1 | 63.2 | 66.8 | 54 | 26.1 | 15.1 | 15.1 | 20.3 | 67.5 | 64.8 | 64.4 | 37.8 | 60.3 |
